The results in this text go back to patent US20260327263A1, “Anti-Bacterial Peptides” (priority 2023, published 2026).

“And” between values parts separate entries of the source, which are not always exact repeats. Equal entries are not always repeated. “Also recorded” adds a separate entry of the source. Where no end group is shown, it is not given here.

Data set [1] concerns Staphylococcus aureus (SA). Kind of data set: Broth microdilution anti-bacterial assay (CLSI), Staphylococcus aureus. It counts as cell-based. The note with it: SA; for MIC: overnight, 37° C., ≥99% inhibition; for MBC: ≥99% killing. (In general: Broth dilution looks for growth in wells or tubes with falling amounts of substance.)
The subject of data set [2] is human red blood cells (hRBCs). Kind of data set: Hemolysis assay. It counts as cell-based. The settings on record: hRBCs; for minimum concentration corresponding to 10% hemolysis (HC): 37° C., 30 min; for hemolysis (in words): FIG. 8 up to 100 μM. How it is done: (§1) The hemolytic score of the peptide variants and pexiganan (SEQ ID NO: 54) are compared to a strong hemolytic peptide, melittin 12 as a control. […] The minimum peptide concentration corresponding to 10% hemolysis (minimal hemolysis concentration, HC) of E1AM2=50 μM, V8LQ19L=12.5 μM, V8LQ19L C-2=3.125 μM, and pexiganan=12.5 μM respectively. Readings of the melittin at 3.125 μM were normalised to 100%.
(§2) Examination of hemolytic activity of ultra-short peptides was performed by isolating the red blood cells (RBCs) from human blood samples by centrifugation (1000 g, 4° C., 10 min) and resuspension in 27 mL PBS. This washing step was repeated four times before the RBCs were diluted to a 10% (v/v) suspension. […] Hemolytic properties of E1AM2 and pexiganan were evaluated with melittin used as a positive control, and PBS as a negative control. The plates were incubated at 37° C., for 30 min and then centrifuged (1258 g, 4° C., 6 min). 75 μL of supernatant were transferred into a flat-bottom clear 96-well plate and the OD576 nm was read. Readings of the melittin sample at 3.125 μM were normalized to 100%.

A short description of a further data set: Hemolysis assay. The note with it: human, red blood cells; at respective MIC/MBC concentrations; melittin 3.125 μM = 100%. It counts as cell-based, human. On the procedure: as §1, §2
Data set [3] concerns Pseudomonas aeruginosa (PA). Kind of data set: Broth microdilution anti-bacterial assay (CLSI), Pseudomonas aeruginosa. It counts as cell-based, Pseudomonas aeruginosa (ATCC 14213). The settings on record: for anti-bacterial activity (in words): PA and SA; for MIC / MBC: PA; for MIC: overnight, 37° C., ≥99% inhibition; for MBC: ≥99% killing.
Data set [4] concerns human keratinocytes (HaCaT). The data set is described as follows: Cell proliferation assay, HaCaT keratinocytes. The class given is cell-based. The note with it: 100 μM; cell line not named in Table 15. How it is done: (§3) Wound closure was compared with the untreated samples (circle, red highlight). For improved clarity, error bars have been omitted from this representation. […] Each value is the mean±SD (n=3). Statistical significance was assessed using ANOVA for multiple comparisons (Dunnett's multiple comparisons test). **** p<0.0001, *** p<0.001, ** p<0.01, *p<0.05, ns denotes nonsignificance, p >0.05.
CyQUANT™ Direct Cell Proliferation Assay (ThermoFisher Scientific, Catalogue) was performed as per manufacturer's instructions to determine the safety of the peptides to human keratinocytes. […] The fluorescence intensity and number of stained cells were determined using the LionHeart FX Automated Microscope (BioTek, VT, USA).

Data set [5] relates to Pseudomonas aeruginosa PA BAA-2110. The data set is described as follows: Broth microdilution, PA BAA-2110 (lung infection in cystic fibrosis). The note with it: PA BAA-2110. The class given is cell-based, Pseudomonas aeruginosa (BAA-2110). On the procedure: (§4) Bacteria strains involved in lung infection in cystic fibrosis patients (PA-BAA 2110) and ear-eye infections (PA-CRM 9027) are treated with exemplary variant peptides, such as E1AM2 and Q19L.
(§5) Examination of the potency of modified short peptides against PA and SA strains was performed by using the broth microdilution protocol from the Clinical and Laboratory Standards Institute (CLSI) guidelines (CLSI 2012) as described. Briefly, five freshly plated bacteria colonies were grown in cation adjusted MH2 broth (BD Biosciences) in a shaker incubator at 37° C., 220 RPM. Cells were grown to an optical density (OD600) of ~0.2 measured using a Microplate Spectrophotometer (Molecular Devices Spectra Max Plus). 100 μL of microbial culture containing ~5×10^5 CFU/mL of bacteria in the respective broths were introduced into each well containing 100 μL of peptides and incubated overnight at 37° C. Next, to check the bactericidal effects, 100 μL from each well was transferred and spread on sterile MH2 agar plates. The plates were incubated overnight at 37° C. and the number of colonies forming units (CFU) were calculated the following day. Readings of bacteria grown in media without any treatments were normalized to 100% as media control. For the mixed infection study, three freshly plated bacteria colonies each from PA, SA and ST plates were grown together in cation adjusted MH2 broth and proceeded as described above.

The next data set has as its system fibroblasts (HFF-1). The data set is described as follows: Cell proliferation assay, HFF-1 fibroblasts. The note with it: 24 h; certain concentrations. It counts as cell-based.
The subject of data set [6] is Pseudomonas aeruginosa (PA). The data set is described as follows: Antimicrobial resistance evolution assay, PA. The note with it: for development of antimicrobial resistance, PA: serial passaging, 28 days, resistance = >4-fold MIC change. It counts as cell-based. An excerpt:
(§6) The development of antimicrobial resistance is defined by greater than a 4-fold change to their initial minimum inhibitory concentration (MIC) at day 1. Exemplary bacteria strains Pseudomonas aeruginosa (PA) and Staphylococcus aureus (SA) are subjected to continuous daily serial passaging over several days, with treatment of exemplary variant peptides E1AM2 (SEQ ID NO: 2) and Q19L (SEQ ID NO: […]) at subinhibitory concentrations. […] The treatments were discontinued when the MIC increased by more than four-fold from the initial MIC or when MIC reached >100 μM.
(§7) Briefly, sequential passaging of PA, and SA cells was done with sub-inhibitory concentrations of antibiotics or E1AM2 up to 4 weeks. The cells grown in those concentrations of antibiotics or peptides were diluted to A600 nm (OD600) of ~0.2 and serially passaged daily with the same concentrations at 37° C. with agitation at 24 h intervals.

Data set [7] relates to Pseudomonas aeruginosa (PA). Kind of data set: Time-kill assay, Pseudomonas aeruginosa. The class given is cell-based. The settings on record: for time to kill PA (in words): 1X MBC; for Time kill PA, >99% killing: at 1X MBC, * indicates killing within seconds. On the procedure: (§8) The bactericidal abilities of the variant peptides are not only effective, but also fast-acting. […] The killing kinetics are detailed in Table 11 below.
(§9) Pseudomonas aeruginosa (PA) and Staphylococcus aureus (SA) strains were grown as per CLSI guidelines. AMPs were added to the bacterial cultures at their 1X MBC concentrations. Upon treatment, the bacterial cultures were enumerated for viable counts immediately within 1 min, 5 min, 15 min, 30 min and 60 min post-treatments.

Data set [8] concerns mixed bacterial infection (PA, SA and ST). Kind of data set: Broth microdilution, mixed bacterial infection. It counts as cell-based. The note with it: mixed infection. How it is done:
Chronic wounds mostly present mixed infections where numerous pathogens colonize together.
as §5

Data set [9] concerns Staphylococcus aureus (SA). The data set is described as follows: Time-kill assay, Staphylococcus aureus. The class given is cell-based. The note with it: for Time kill SA, >99% killing: at 1X MBC, * indicates killing within seconds. On the procedure: as §8, §9
A short description of data set [10]: Comparison of AMPs in clinical trial with V8LQ19L (Table 13). The settings on record: ✓ / X.
Data set [11] has as its system Pseudomonas aeruginosa PA CRM-9027. Kind of data set: Broth microdilution, PA CRM-9027 (ear-eye infections). The note with it: PA CRM-9027. It counts as cell-based, Pseudomonas aeruginosa (CRM-9027). How it is done:
as §4, §5

Another data set has as its system human keratinocytes. Kind of data set: 2D scratch assay, keratinocyte migration. It counts as cell-based. On the procedure:
Wound healing is directly associated with the migration speed of keratinocytes. The migration speed of human keratinocytes in presence of E1AM2, V8L (SEQ ID NO: 19), and Q19L variants is tested in comparison with pexiganan (SEQ ID NO: 54). Migration speed of human keratinocytes assessed in a 2D scratch assay at D 0 and D 2 timepoints. Decrease in wound area over time was measured by applying an ImageJ plugin ‘Wound Healing Size Tool’ on bright-field images. The change in wound area over the course of 48 hours was used as a measure of the migration speed of keratinocytes. Each value is the mean±SD (n=3). The p-value was calculated using ANOVA for multiple comparisons (Dunnett's multiple comparisons test). **** p<0.0001. *** p<0.001. ** p <0.01. * p<0.05. […] Both peptides healed wound faster within their respective MIC and MBC concentrations. […] SEQ ID NO: 27=Q19L; SEQ ID NO: 2=E1AM2; SEQ ID NO: 19=V8L.
as §3
Wound areas of the human keratinocyte culture were assessed in presence of peptides in a 2D scratch assay at the 0 hour, and 48-hour time points by applying an ImageJ plugin, ‘Wound Healing Size Tool’ on brightfield images. Quantification of wound width was calculated by obtaining the averaged Euclidean distance between each paired pixel at the lateral wound edges. The change in wound area over the course of 48 hours was used as a measure of the migration speed of keratinocytes.
Using the inverted BioTek Lionheart LX Automated Microscope, brightfield images were obtained at 4× magnification to observe the wound area at timepoints 0 (before treatment) and 48 hours-post treatment. Microscopy settings were maintained as focus offset (781.3 μm), illumination (2), integration Time (21) with no gain. To cover the entire well, montage images of four rows by three columns were stitched together by enabling the “image stitching” function and images were saved in tiff-format.

The subject of data set [12] is Staphylococcus aureus (SA). The data set is described as follows: Antimicrobial resistance evolution assay, SA. The class given is cell-based. The note with it: serial passaging; resistance = >4-fold MIC change.
From the text: as §6, §7

The MIC is the least concentration at which growth counts as inhibited. Read a low MIC as greater potency. The term MBC denotes the lowest tested concentration that kills the bacteria rather than only halting them. In data set [1], KKLLKKWLKLSKKALKLAL-NH2 [V8LQ19L C-2] returned a minimal inhibitory concentration (MIC) of 1.56 µM and a minimal bactericidal concentration (MBC) of 1.56 µM. In addition, in data set [2], the “minimum concentration corresponding to 10% hemolysis (HC)” value turned out to be 3.125 µM and the “hemolysis (in words)” value was “do not cause hemolysis”. This substance also gave a hemolysis at 0.5 h in “Hemolysis assay” of around 0%. In addition, in data set [3], the “anti-bacterial activity (in words)” value is recorded as “strong potency”, the MIC was determined as 1.56 µM and the minimal bactericidal concentration (MBC) turned out to be 1.56 µM.
In the case of “GIGKFLKKAKKFGKAFVKILKK-NH2 [Pexiganan, reference compound]”, in data set [4], the “Cytotoxicity at high concentration (100 μM)” value was “Cytotoxic”. Also, the minimum bactericidal concentration (MBC) in data set [5] was 6.25 µM; in data set [1], 12.5 µM; in data set [1] (listed as PEX), 12.8 µM and 12.5 µM and 12.6 µM; in data set [8], 12.5 µM; in data set [3] it was 6.25 µM; in data set [3] (listed as PEX), 6.25 µM and 8.25 µM. The minimum bactericidal concentration (MBC) in data set [11] came to 3.125 µM. For the same substance, the minimal inhibitory concentration (MIC) in data set [5] is 3.125 µM; in data set [1], 6.25 µM and 6.12 µM; in [1] (listed as PEX) it was 6.25 µM and 6.26 µM; in data set [8], 6.25 µM; in data set [3] it was 3.125 µM; in data set [3] (listed as PEX) it was 3.128 µM and 3.125 µM. Further, the minimum inhibitory concentration (MIC) in data set [11] is 3.125 µM. Besides, in the data set with fibroblasts (HFF-1), the HFF-1 proliferation entry is “enhanced proliferation”. In addition, the “MIC/MBC relative to E1AM2, SA” value in data set [1] is reported as “two-higher value”. Further, in [2], the “minimum concentration corresponding to 10% hemolysis (HC)” value was 12.5 µM. Besides, the “hemolysis (in words)” value in data set [2] is “none of the peptide variants or pexiganan caused significant hemolysis”. Besides, the “AMR prevention / resistance induction” value in [6] (Table 15: in PA and SA, bacteria not named) is reported as “Gives rise to AMR”. Further, the “development of antimicrobial resistance, PA” value in data set [6] was “developed resistance”. For the same substance, the “time to kill PA (in words)” value in [7] is on record as “took the longest time to kill >99% PA”. For the same substance, in [7], the “Time kill PA, >99% killing” value is above 5 to 15 min. Further, the “Time kill SA, >99% killing” value in [9] stood at 1 min. In addition, the Broad spectrum activity result in [10] is “✓”. Also, the Healing support result in data set [10] was “✓”.
As to KKLLKKWVKLSKKALKLALSL-NH2 [Q19L], in data set [5], the MBC worked out at 6.25 µM and the minimal inhibitory concentration (MIC) worked out at 6.25 µM. In addition, in data set [1], the MIC came to 3.125 µM and the MBC amounted to 3.125 µM. Further, the “migration speed of keratinocytes” value with human keratinocytes (48 h, E1AM2 3.125-12.5 μM, Q19L 3.125-6.25 μM) is listed as “increase keratinocyte migration; also recorded: increased the migration speed of keratinocytes significantly”. Moreover, the “migration delay of keratinocytes” value with human keratinocytes (only at highest concentrations (100 μM)) is given as “significant migration delay”. The “development of antimicrobial resistance, PA” value in data set [6] is on record as “prevented resistance acquisition”. Also, in data set [7], the “time to kill PA (in words)” value is “within minutes” and the “Time kill PA, >99% killing” value was above 1.5 min. Also, the “time to kill SA (in words)” value in data set [9] (1X MBC) is on record as “within minutes”. Besides, the “Time kill SA, >99% killing” value in data set [9] is on record as 1 min. In data set [3], the “anti-bacterial activity (in words)” value was “reduction in the minimum inhibitory concentration (MIC) and minimum bactericidal concentration (MBC) values”; the minimal inhibitory concentration (MIC) was 3.125 µM; the MBC is 3.125 µM and 6.25 µM. For the same substance, the “development of antimicrobial resistance, SA” value in [12] is listed as “prevented resistance development”. In [11], this substance registered an MBC of 6.25 µM and an MIC of 6.25 µM.
